Data reported in paper PMC13114161 (Antibiotics, 2026).
Read-outs that look alike come from different tables or passages of the source. Peptide text beside a SMILES is read from it. * marks the point of attachment. βNA = c1ccc2cc(N*)ccc2c1

Assays:
Type in all cases: cell-based, Pseudomonas aeruginosa
[1] = system: P. aeruginosa ATCC 27853; assay: MIC and levofloxacin potentiation (broth microdilution); settings: for LVX MIC (+EPI): levofloxacin MIC with EPI at […]
Description: Once synthesized, the three fluorinated EPI analogs (TXA11114, TXA11164 and TXA12027) were first assayed for their antibacterial activities against P. aeruginosa ATCC 27853. They had MICs of 100, >200 and 100 µg/mL, respectively (Table 1). […] Particularly, the inactivity of TXA11164 was surprising as the pKa values of both the amines are similar to that in TXA11114.
(§1) MIC assays for potentiation of antimicrobial activity against P. aeruginosa were performed as described previously.

[2] = system: P. aeruginosa ATCC 27853 ompH mutants EPIR32, EPIR36, EPIR38; assay: microbe, parasite or virus in culture
Description: as §1

[3] = system: P. aeruginosa; assay: MIC potentiation of antimicrobial agents by EPIs; settings: for Fold difference of antibiotic MIC + TXA01182 / MIC of antibiotic + TXA01182: TXA01182 at […]; for Fold difference of antibiotic MIC + TXA09155 / MIC of antibiotic + TXA09155: TXA09155 at […]; for Fold difference of antibiotic MIC + TXA11114 / MIC of antibiotic + TXA11114: TXA11114 at […];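 on Fold difference of antibiotic MIC + TXA01182: TXA01182 tested at 6.25 µg/mL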;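 on Fold difference of antibiotic MIC + TXA09155: TXA09155 tested at 6.25 µg/mL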; on Fold difference of antibiotic MIC + TXA11114: TXA11114 at 6.25 µg/mL;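 on MIC of antibiotic + TXA01182: TXA01182 tested at 6.25 µg/mL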;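 on MIC of antibiotic + TXA09155: TXA09155 tested at 6.25 µg/mL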; on MIC of antibiotic + TXA11114: TXA11114 at 6.25 µg/mL
Description: In contrast, the activities of gentamicin and imipenem were unchanged in the presence of TXA11114 under the conditions tested. Although gentamicin can be transported by the MexXY efflux system, the absence of potentiation in this assay is not sufficient to draw conclusions regarding MexXY inhibition or overall efflux specificity.
as §1

[4] = system: multidrug-resistant P. aeruginosa clinical isolates from the CDC-FDA; assay: Levofloxacin MIC potentiation, CDC-FDA isolates; settings: for Levofloxacin MIC fold difference, +EPI / Levofloxacin MIC, +EPI: EPI […] (TXA11114, TXA09155) or 50 μg/mL (MC-04,124, PAβN); for Share of CDC isolates with levofloxacin MIC reduced ≥8-fold (potentiated): TXA11114 […], PAβN and MC-04,124 50 µg/mL
Description: In a comparative study, the levofloxacin-potentiating activity of TXA11114 was evaluated alongside the well-characterized EPIs PAβN and MC-04,124 using P. aeruginosa clinical isolates obtained from the CDC and FDA Antimicrobial Resistance Isolate Bank and the Walter Reed Army Institute of Research (WRAIR). […] While PAβN has been widely studied in laboratory strains, its activity against the CDC/FDA P. aeruginosa panel has been reported only sparingly, limiting direct cross-study comparisons.
as §1

[5] = ATCC 27853 parent strain (Table S1)
[6] = Pseudomonas aeruginosa, ATCC27853, ATCC 27853 parent strain (Table S1), read-out: MIC
[7] = Pseudomonas aeruginosa, ATCC27853, EPIR32
[8] = Pseudomonas aeruginosa, ATCC27853, EPIR36
[9] = Pseudomonas aeruginosa, ATCC27853, EPIR38
[10] = Pseudomonas aeruginosa, ATCC27853, EPI alone, ATCC 27853, read-out: EPI MIC

Molecule: polymyxin B [PMB]
- MIC [1, 5]: 2 µg/mL
- MIC ([2]; EPIR32): 4 µg/mL
- MIC ([2]; EPIR36): 4 µg/mL
- MIC ([2]; EPIR38): 4 µg/mL

Molecule: NCC[C@H](O)C(=O)N[C@@H]1C[C@H](N)[C@@H](O[C@H]2O[C@H](CN)[C@@H](O)[C@H](O)[C@H]2O)[C@H](O)[C@H]1O[C@H]1O[C@H](CO)[C@@H](O)[C@H](N)[C@H]1O [AMK, amikacin]
- MIC [1, 6]: 8 µg/mL
- MIC [2, 7]: 2 µg/mL
- MIC [2, 8]: 1 µg/mL
- MIC [2, 9]: 4 µg/mL

Molecule: NCC(F)(F)C[C@@H](N)CNC(=O)c1cc2ccc(-c3ccc(F)cc3)cc2[nH]1 [TXA12027, (R)-N-(2,5-diamino-4,4-difluoropentyl)-6-(4-fluorophenyl)-1H-indole-2-carboxamide]
- MIC [1, 10]: 100 µg/mL
- LVX MIC (+EPI) ([1]; ATCC 27853): 1 µg/mL

Molecule: CN(C)c1cc(NC(=O)CNC(C)(C)C)c(O)c2c1C[C@H]1C[C@H]3[C@H](N(C)C)C(O)=C(C(N)=O)C(=O)[C@@]3(O)C(O)=C1C2=O [TGC, tigecycline]
- MIC [1, 5]: 8 µg/mL
- MIC [2, 7]: 2 µg/mL
- MIC [2, 8]: 2 µg/mL
- MIC [2, 9]: 8 µg/mL

Molecule: CC[C@H]1OC(=O)[C@H](C)[C@@H](O[C@H]2C[C@@](C)(OC)[C@@H](O)[C@H](C)O2)[C@H](C)[C@@H](O[C@@H]2O[C@H](C)C[C@H](N(C)C)[C@H]2O)[C@](C)(O)C[C@@H](C)CN(C)[C@H](C)[C@@H](O)[C@]1(C)O [AZM, azithromycin]
- MIC [1, 5]: 64 µg/mL
- MIC [2, 7]: 32 µg/mL
- MIC [2, 8]: 16 µg/mL
- MIC [2, 9]: 64 µg/mL

Molecule: Cotrimoxazole
- MIC of antibiotic, No EPI [3]: 256 µg/mL
- Fold difference of antibiotic MIC + TXA01182 [3]: 16, (>16) fold
- MIC of antibiotic + TXA01182 [3]: 16, (>16) μg/mL
- Fold difference of antibiotic MIC + TXA09155 [3]: 32 fold
- MIC of antibiotic + TXA09155 [3]: 8 µg/mL
- Fold difference of antibiotic MIC + TXA11114 [3]: 8 fold
- MIC of antibiotic + TXA11114 [3]: 32 µg/mL

Molecule: C[C@@H](O)[C@H]1C(=O)N2C(C(=O)O)=C(S[C@@H]3CN[C@H](C(=O)N(C)C)C3)[C@H](C)[C@H]12 [MEM, meropenem]
- MIC [1, 6]: 1 µg/mL
- MIC [2, 7]: 0.125 µg/mL
- MIC [2, 8]: 0.125 µg/mL
- MIC [2, 9]: 0.5 µg/mL

Molecule: CNC(C)C1CCC(N)C(OC2C(N)CC(N)C(OC3OCC(C)(O)C(NC)C3O)C2O)O1 (centres unmarked) [Gentamicin]
- Fold difference of antibiotic MIC + TXA01182 [3]: 1 fold
- MIC of antibiotic + TXA01182 [3]: 2 µg/mL
- Fold difference of antibiotic MIC + TXA09155 [3]: 1 fold
- MIC of antibiotic + TXA09155 [3]: 2 µg/mL
- Fold difference of antibiotic MIC + TXA11114 [3]: 1 fold
- MIC of antibiotic + TXA11114 [3]: 2 µg/mL
- Fold difference of antibiotic MIC + TXA11114 ([3]; listed as gentamicin): unchanged

Molecule: NCC1CNC(C(=O)NC(CCc2ccccc2)C(=O)Nc2ccc3ncccc3c2)C1 (centres unmarked) [MC-04,124]
- Levofloxacin MIC fold difference, +EPI ([4]; AR-0229): 1 fold
- Levofloxacin MIC, +EPI ([4]; AR-0229): 64 µg/mL
- Levofloxacin MIC fold difference, +EPI ([4]; AR-0232): 1 fold
- Levofloxacin MIC, +EPI ([4]; AR-0232): 8 µg/mL
- Levofloxacin MIC fold difference, +EPI ([4]; AR-0233): 1 fold
- Levofloxacin MIC, +EPI ([4]; AR-0233): 4 µg/mL
- Levofloxacin MIC fold difference, +EPI ([4]; AR-0234): 1 fold
- Levofloxacin MIC, +EPI ([4]; AR-0234): 8 µg/mL
- Levofloxacin MIC fold difference, +EPI ([4]; AR-0239): 1 fold
- Levofloxacin MIC, +EPI ([4]; AR-0239): 64 µg/mL
- Levofloxacin MIC fold difference, +EPI ([4]; AR-0242): 2 fold
- Levofloxacin MIC, +EPI ([4]; AR-0242): 4 µg/mL
- Levofloxacin MIC fold difference, +EPI ([4]; AR-0244): 1 fold
- Levofloxacin MIC fold difference, +EPI ([4]; AR-0246): 1 fold
- Levofloxacin MIC, +EPI ([4]; AR-0246): 64 µg/mL
- Levofloxacin MIC fold difference, +EPI ([4]; AR-0248): 1 fold
- Levofloxacin MIC, +EPI ([4]; AR-0248): 16 µg/mL
- Levofloxacin MIC fold difference, +EPI ([4]; AR-0249): 1 fold
- Levofloxacin MIC, +EPI ([4]; AR-0249): 64 µg/mL
- Levofloxacin MIC fold difference, +EPI ([4]; AR-0252): 1 fold
- Levofloxacin MIC, +EPI ([4]; AR-0252): 32 µg/mL
- Levofloxacin MIC fold difference, +EPI ([4]; AR-0253): 1 fold
- Levofloxacin MIC, +EPI ([4]; AR-0253): 2 µg/mL
- Levofloxacin MIC fold difference, +EPI ([4]; AR-0264): 1 fold
- Levofloxacin MIC, +EPI ([4]; AR-0264): 64 µg/mL
- Share of CDC isolates with levofloxacin MIC reduced ≥8-fold (potentiated) [4]: minimal MIC shifts

Molecule: C[C@H]1[C@H](NC(=O)/C(=N\OC(C)(C)C(=O)O)c2csc(N)n2)C(=O)N1S(=O)(=O)O [Aztreonam]
- Fold difference of antibiotic MIC + TXA01182 [3]: 4 fold
- MIC of antibiotic + TXA01182 [3]: 2 µg/mL
- Fold difference of antibiotic MIC + TXA09155 [3]: 4 fold
- MIC of antibiotic + TXA09155 [3]: 2 µg/mL
- Fold difference of antibiotic MIC + TXA11114 [3]: 2 fold

Molecule: CO/N=C(\C(=O)N[C@@H]1C(=O)N2C(C(=O)[O-])=C(C[n+]3cccc4c3CCC4)CS[C@H]12)c1csc(N)n1 [Cefpirome]
- Fold difference of antibiotic MIC + TXA01182 [3]: 2 fold
- Fold difference of antibiotic MIC + TXA09155 [3]: 8 fold
- MIC of antibiotic + TXA09155 [3]: 1 µg/mL
- Fold difference of antibiotic MIC + TXA11114 [3]: 4 fold
- MIC of antibiotic + TXA11114 [3]: 2 µg/mL

Molecule: NC(N)=NCCC[C@H](NC(=O)[C@@H](N)Cc1ccccc1)C(=O)Nc1ccc2ccccc2c1 [PAβN, phenylalanine-arginine β-naphthylamide] (H-Phe-Arg-βNA)
- Levofloxacin MIC fold difference, +EPI ([4]; AR-0229): 1 fold
- Levofloxacin MIC, +EPI ([4]; AR-0229): 64 µg/mL
- Levofloxacin MIC fold difference, +EPI ([4]; AR-0232): 16 fold
- Levofloxacin MIC, +EPI ([4]; AR-0232): 0.5 µg/mL
- Levofloxacin MIC fold difference, +EPI ([4]; AR-0233): 1 fold
- Levofloxacin MIC, +EPI ([4]; AR-0233): 4 µg/mL
- Levofloxacin MIC fold difference, +EPI ([4]; AR-0234): 16 fold
- Levofloxacin MIC, +EPI ([4]; AR-0234): 0.5 µg/mL
- Levofloxacin MIC fold difference, +EPI ([4]; AR-0239): 8, (8) fold
- Levofloxacin MIC, +EPI ([4]; AR-0239): 8, (8) μg/mL
- Levofloxacin MIC, +EPI ([4]; AR-0242): 0.5 µg/mL
- Levofloxacin MIC fold difference, +EPI ([4]; AR-0244): 1 fold
- Levofloxacin MIC fold difference, +EPI ([4]; AR-0246): 1 fold
- Levofloxacin MIC, +EPI ([4]; AR-0246): 64 µg/mL
- Levofloxacin MIC fold difference, +EPI ([4]; AR-0248): 1 fold
- Levofloxacin MIC, +EPI ([4]; AR-0248): 16 µg/mL
- Levofloxacin MIC fold difference, +EPI ([4]; AR-0249): 8, (8) fold
- Levofloxacin MIC, +EPI ([4]; AR-0249): 8, (8) μg/mL
- Levofloxacin MIC fold difference, +EPI ([4]; AR-0252): 32 fold
- Levofloxacin MIC, +EPI ([4]; AR-0252): 1 µg/mL
- Levofloxacin MIC fold difference, +EPI ([4]; AR-0253): 64 fold
- Levofloxacin MIC, +EPI ([4]; AR-0253): 0.031 µg/mL
- Levofloxacin MIC fold difference, +EPI ([4]; AR-0264): 1 fold
- Levofloxacin MIC, +EPI ([4]; AR-0264): 64 µg/mL
- Share of CDC isolates with levofloxacin MIC reduced ≥8-fold (potentiated) [4]: ~ 54%

Molecule: CC(C)(O/N=C(\C(=O)N[C@@H]1C(=O)N2C(C(=O)[O-])=C(C[n+]3ccccc3)CS[C@H]12)c1csc(N)n1)C(=O)O [Ceftazidime, ceftazidime]
- MIC [1, 5]: 2 µg/mL
- MIC [2, 7]: 0.25 µg/mL
- MIC [2, 9]: 2 µg/mL
- MIC of antibiotic + TXA01182 [3]: 1 µg/mL
- MIC of antibiotic + TXA11114 [3]: 0.5 µg/mL

Molecule: NCCC(F)[C@@H](N)CNC(=O)c1cc2ccc(-c3ccc(F)cc3)cc2[nH]1 (stereo partly drawn) [TXA11164, N-((2S)-2,5-diamino-3-fluoropentyl)-6-(4-fluorophenyl)-1H-indole-2-carboxamide]
- EPI MIC ([1]; EPI alone, ATCC 27853): >200 µg/mL
- Fold MIC reduction [LVX/EPI-LVX] ([1]; EPI at […], ATCC 27853, listed as TXA11167): lacked potentiation activity
- MIC [1, 10]: > 200 µg/mL
- LVX MIC (+EPI) ([1]; ATCC 27853): 1 µg/mL

Molecule: C[C@H]1c2cccc(O)c2C(=O)C2=C(O)[C@]3(O)C(=O)C(C(N)=O)=C(O)[C@@H](N(C)C)[C@@H]3[C@@H](O)[C@@H]21 [Doxycycline, doxycycline]
- MIC [1, 6]: 32 µg/mL
- MIC of antibiotic + TXA01182 [3]: 2 µg/mL
- MIC of antibiotic + TXA09155 [3]: 1 µg/mL
- MIC of antibiotic + TXA11114 [3]: 4 µg/mL

Molecule: Nc1nc(/C(=N/O)C(=O)N[C@@H]2C(=O)N3C(C(=O)O)=C(/C=C4\CCN([C@@H]5CCNC5)C4=O)CS[C@H]23)ns1 [Ceftobiprole]
- Fold difference of antibiotic MIC + TXA01182 [3]: 1 fold
- MIC of antibiotic + TXA01182 [3]: 8 µg/mL
- Fold difference of antibiotic MIC + TXA09155 [3]: 8 fold
- MIC of antibiotic + TXA09155 [3]: 1 µg/mL
- Fold difference of antibiotic MIC + TXA11114 [3]: 4 fold
- MIC of antibiotic + TXA11114 [3]: 2 µg/mL
